Experimental findings from US20040225172A1, “Use of ionic liquids to separate olefins, diolefins and aromatics” (NOVA Chemicals (International) S.A., priority 2002, published 2004) are described below.

Like-named read-outs stand apart in the source and are kept apart here.

The nature of data set [1]: C5 hydrocarbon solubility in ionic liquid (volume change of hydrocarbon phase). Here is the method: The locations of all meniscuses were then recorded. […] The testing was conducted at ambient temperature.
Data set [2] in a line: Cyclo-C8 hydrocarbon solubility in ionic liquids.
The conditions of data set [3]: ambient temperature; for Propane absorbed (mol C3H8/L absorbent) / Propylene absorbed (mol C3H6/L absorbent): equilibrium. Here is the method: The testing apparatus consists of two sample cylinders (one 1000 cc cylinder and one 150 cc cylinder) connected by ⅛-inch tubing with valves allowing for isolation of each cylinder. A digital pressure gauge indicates the larger cylinder pressure and the pressure of the system when the cylinders are not isolated.
To measure absorption, 50 mL of bmim^+ BF4^− absorbent was loaded into the smaller cylinder and the larger cylinder was pressurized with the hydrocarbon gas. The amount of gas absorbed by the sample of bmim^+BF4^− is proportional to the pressure drop that occurs when the sample is exposed to the test gas, and can be calculated knowing the internal volume of the closed system.
The sample was then exposed to the gas in the large 1000 cc cylinder as the valve separating the cylinders was opened. The initial pressure drop was recorded. The sample was stirred via magnetic stirrer. When the system came to equilibrium (no pressure changed for over 1 hour) the final absorption pressure was recorded and the cylinders were once again separated. This procedure could be repeated for different absorption pressures. Experiments were conducted at ambient temperature.
Between experimental runs, the absorbent was degassed by bubbling a nitrogen entrainment gas through the absorbent for 2 to 3 hours.

[4] abbreviates: in bmim^+ BF4^− ionic liquid, ambient temperature.

`CC=C(C)C` [2-Methyl-2-Butene, 2-methyl-2-butene]: in data set [1] (setting [4]), the “Selectivity over Isopentane” value is 10.6 and the “Solubility (mol C5/L ionic liquid)” value was determined as 0.360 mol C5/L ionic liquid.

Take `CCc1ccccc1` [Ethylbenzene, ethylbenzene]: in data set [2], the “Solubility in mbpy^+ BF4^− (mol C8/L ionic liquid)” value worked out at 0.551 mol C8/L ionic liquid.

As for `CCC(C)C` [Isopentane, isopentane], in data set [1], the “Solubility (mol C5/L ionic liquid)” value is 0.034 mol C5/L ionic liquid.

In the case of `C=CC(=C)C` [Isoprene, isoprene], in data set [1] (setting [4]), the “Selectivity over Isopentane” value is reported as 18.0 and the “Solubility (mol C5/L ionic liquid)” value amounted to 0.611 mol C5/L ionic liquid.

As for `CCCCn1cc[n+](C)c1.F[B-](F)(F)F` [bmim^+ BF4^−, 1-butyl-3-methylimidazolium tetrafluoroborate], in data set [3] (50.0 psig), the “C3H6:C3H8 Selectivity” value is on record as 3.55, the “Propane absorbed (mol C3H8/L absorbent)” value came to 0.011 mol C3H8/L absorbent and the “Propylene absorbed (mol C3H6/L absorbent)” value was 0.039 mol C3H6/L absorbent. Moreover, in data set [3] (72.6 psig), the “C3H6:C3H8 Selectivity” value was 9.92, the “Propane absorbed (mol C3H8/L absorbent)” value is given as 0.012 mol C3H8/L absorbent and the “Propylene absorbed (mol C3H6/L absorbent)” value came out at 0.119 mol C3H6/L absorbent.
